Source: patent US20240026295A1, “USE OF COMPOUND FOR IMPROVING TRANSPLANTATION EFFICIENCY OF HUMAN HEMATOPOIETIC STEM CELLS” (EDIGENE (GUANGZHOU) INC., priority 2020, published 2024)
Counter-ions that a name gives are not always drawn.

Tests used:
[1] = test system: surface protein CD184 expression in CD34+HSPCs; experiment: Preliminary screening: CD184 mean fluorescence intensity by flow cytometry; assay type: cell-based, human; conditions: 16 hours treatment, three concentrations
Procedure: (§1) According to the counting results in Example 1, 5×10^4CD34+ cells were added to each well of a 24-well plate, and the cells were cultured with 1 ml of complete medium per well for 24 hours.
(§2) The next day, the compound was dissolved in DMSO and mixed, and then diluted with PBS to a specific concentration (see Table 3). An equal volume of 10 μl of the diluted compound per well was added to the cell culture medium, mixed well, and placed in an incubator for 16 hours.
(§3) On the third day, an antibody pre-mixed solution was prepared: a solution of PBS+0.5% BSA was pre-mixed with fluorescent antibody BV510 conjugated anti-human CD34 (Biolegend clone 581), FITC conjugated anti-human CD90 (Biolegend, clone 5E10) and APCCy7 conjugated anti-human CD45RA (Biolegend, clone HI100), 50 μl/ml of each antibody was added, and stored in the dark.
(§4) Cells were collected into centrifuge tubes, centrifuged at 400 g for 5 minutes. The supernatant was removed, added with 50 μl of antibody pre-mixed solution (containing 2.5 μl of each antibody) in each sample, resuspended and incubated at 4° C. for 20 minutes in the dark. The cells were washed with 1 ml of PBS added to each tube, centrifuged at 400 g for 5 minutes and resuspended with 50 μl of PBS+0.5% BSA solution. 2.5 μl of PE-conjugated anti-CD184 antibody (Biolegend, clone 12G5) was added to each sample, incubated at 37° C. for 30 minutes, washed, and stained with 7AAD to identify cell viability. Flow cytometry (Beckman Coulter CytoFLEX) was used to detect cell surface fluorescence, and the mean fluorescence intensity (MFI) and positive ratio of CD184 expression in HSPCs and LT-HSCs were analyzed, respectively. Among them, HSPCs are CD34+ cells, and LT-HSCs are CD34+CD90+CD45RA− cells.
(1) Preliminary screening of compounds: 139 compounds were used for preliminary screening, among which 89 compounds were screened in rounds 1-5, and 50 compounds were screened in rounds 6-9. During the in vitro culture of CD34+HSPCs, they were treated for 16 hours by adding three concentrations of compounds to the complete medium. Then the mean fluorescence intensity of surface protein CD184 expression was detected by flow cytometry. 1.

[2] = test system: surface protein CD184 expression in CD34+HSPCs; experiment: Secondary screening: CD184 mean fluorescence intensity, ratio to control group; assay type: cell-based, human; conditions: high concentration, 16 hours treatment, FIG. 2
Procedure: as §1, §2, §3, §4
(2) Secondary screening of compounds: the 13 compounds obtained from the preliminary screening were further verified using three concentrations of high, medium and low, with three replicates for each concentration. After 16 hours of treatment with the above-mentioned compounds, the average fluorescence intensity of surface protein CD184 expression was detected by flow cytometry. 2. Wherein, the data in the figure are the ratio of the mean CD184 fluorescence intensity of each group to the control group (Mock). (M344 is the positive control group; Mock is the negative control group untreated during culture.)

[3] = test system: NPG (NOD-scid Il2rg−/−) immunodeficient mice; experiment: Transplantation of treated human CD34+HSPCs into irradiated NPG mice; assay type: in vivo, mouse; conditions: 17 weeks after transplantation; for differentiation of treated HSPCs in bone marrow, spleen and peripheral blood: FIG. 5B to 5D; for transplantation efficiency of cells in the bone marrow of NPG mice (hCD45+/(hCD45+ + mCD45+)×100%): HSPCs treated ex vivo, Mock group 64.7%
Excerpt: The transplantation efficiency of hematopoietic stem cells refers to the ability of hematopoietic stem cells from human donor to effectively migrate to the recipient's bone marrow after intravenous injection into the recipient, maintain growth in the bone marrow microenvironment, and play a role in repopulating of the hematopoietic system. To verify the transplantation efficiency of hematopoietic stem cells in the experiment, human hematopoietic stem cells are transplanted into an immune-deficient mouse model, the blood and immune organs of the recipient mice are detected by flow cytometry, and the content of human donor cells (hCD45 positive cell ratio) is analyzed.
Human CD34+HSPCs treated with Colchicine, Vinblastine sulfate or Lexibulin for a short time, or those in the control group were transplanted into NPG (NOD-scid Il2rg−/−) immunodeficient mice irradiated with 1.0 Gy, 8 mice in each group. 17 weeks after transplantation, cell transplantation efficiency in mouse bone marrow, and distribution proportion of human T cells labeled with human CD3, CD4 and CD8 antibodies, myeloid cells labeled with human CD33 antibody, B cells labeled with CD19 antibody, NK cells labeled with human CD56 antibody, and hematopoietic stem and progenitor cells labeled with human CD34 antibody in bone marrow, peripheral blood, and spleen were detected. The results are shown in FIG. 5A to FIG. 5D, where the transplantation efficiency=hCD45^+proportion/(hCD45^+proportion+mCD45^+proportion)×100%

SMILES | expression of CD184 in CD34+HSPCs (mean fluorescence intensity) [1] | expression of CD184 relative to negative control (Mock) [2] | expression of CD184 relative to positive control M344 [2] | differentiation of treated HSPCs in bone marrow, spleen and peripheral blood [3] | transplantation efficiency of cells in the bone marrow of NPG mice (hCD45+/(hCD45+ + mCD45+)×100%) [3]
COC(=O)Nc1nc2ccc(C(=O)c3cccs3)cc2[nH]1 [Nocodazole] | can enhance the expression of CD184 |  |  |  | 
COc1cc2c(c(OC)c1OC)-c1ccc(OC)c(=O)cc1[C@@H](NC(C)=O)CC2 [Colchicine] | can enhance the expression of CD184 | 2.6 times | comparable effects to M344 | can differentiate into T cells, myeloid cells, B cells and NK cells | 65.84%
Cc1c[nH]c(-c2cnc(NCCNc3ccc(C#N)cn3)nc2-c2ccc(Cl)cc2Cl)n1 [CHIR99021] | can enhance the expression of CD184 |  |  |  | 
CCC[C@H](Nc1nc(-c2ccc(NC(=O)NCC)c(OC)c2)ncc1C)c1cccnc1 [Lexibulin] | can enhance the expression of CD184 |  | ~2 times | can differentiate into T cells, myeloid cells, B cells and NK cells | 82.46%
O=C(Nc1ccc2[nH]nc(-c3ccncc3)c2c1)[C@@H]1CCN(CC(=O)N2CCN(c3ccc(-c4ncccn4)cc3)CC2)C1 [SCH772984] | can enhance the expression of CD184 |  |  |  | 
COC[C@H]1Cn2cc(-c3nc(Nc4ccnn4C)ncc3C)nc2C(=O)N1Cc1ccc(F)c(F)c1 [AZD0364] | can enhance the expression of CD184 |  |  |  | 
CC[C@]1(O)C[C@@H]2CN(CCc3c([nH]c4ccccc34)[C@@](C(=O)OC)(c3cc4c(cc3OC)N(C)[C@H]3[C@@](O)(C(=O)OC)[C@H](OC(C)=O)[C@]5(CC)C=CCN6CC[C@]43[C@@H]65)C2)C1 [Vinblastine sulfate] | can enhance the expression of CD184 |  | ~2 times | can differentiate into T cells, myeloid cells, B cells and NK cells | 80.73%
C/C(=C\c1ccc(C(=O)O)cc1)c1ccc2c(c1)C(C)(C)CCC2(C)C [TTNPB] | can enhance the expression of CD184 |  |  |  | 
O=C(Nc1cccc2cccnc12)c1ccc(N2C(=O)[C@@H]3[C@H](C2=O)[C@@H]2C=C[C@H]3C2)cc1 [IWR-1-endo] | can enhance the expression of CD184 |  |  |  | 
c1cc(-c2cnn3cc(-c4ccc(N5CCNCC5)cc4)cnc23)c2cccnc2c1 [LND-212854] | can enhance the expression of CD184 |  |  |  | 
O=C(NC[C@H](O)CO)c1ccncc1Nc1ccc(I)cc1F [Pimasertib] | can enhance the expression of CD184 |  |  |  | 
N#Cc1c(NC(=O)c2cccc3ccccc23)sc2c1CCCC2 [JNK-inhibitor IX] | can enhance the expression of CD184 |  |  |  | 
